# Paper PMC11106745 (ACS Chemical Biology, 2024)
# Several values for one entry are separate records, joined by “and”; a condition that tells them apart may be missing. Identical values can stand only once. Like-named read-outs stand apart in the source and are kept apart here.
# How the values were obtained:
# SARS-CoV-2 Mac1 [1] = target: T1, SARS-CoV-2 Mac1 (Severe acute respiratory syndrome coronavirus 2, UniProt P0DTD1); assay: biochemical; format: binding; settings: for koff: read-out: kdis
# CHIKV Mac [2] = target: T2, CHIKV Mac (Chikungunya virus, UniProt Q8JUX6); assay: biochemical; format: binding
# VEEV Mac = VEEV Mac (Venezuelan equine encephalitis virus, UniProt P27282); assay: biochemical; format: binding; settings: for koff: read-out: kdis
# SARS-CoV-2 Mac1 [3] = target: T1, SARS-CoV-2 Mac1; assay: biochemical; format: binding; settings: IC50
# MERS-CoV Mac1 [4] = target: T3, MERS-CoV Mac1 (Middle East respiratory syndrome-related coronavirus, UniProt K9N7C7); assay: biochemical; format: binding
# MERS-CoV Mac1 [5] = target: T3, MERS-CoV Mac1; assay: biochemical; format: binding; settings: for koff: read-out: kdis
# CHIKV Mac [6] = target: T2, CHIKV Mac; assay: biochemical; format: binding; settings: for koff: read-out: kdis
# SARS-CoV-2 Mac1 [7] = target: T1, SARS-CoV-2 Mac1; settings: cited from earlier work
# SARS-CoV-2 Mac1 [8] = target: T1, SARS-CoV-2 Mac1; settings: cited from earlier work; remark: listed apart in the source
# SARS-CoV-2 Mac1 [9] = target: T1, SARS-CoV-2 Mac1; settings: cited from earlier work; remark: listed apart in the source
# Sequence of VEEV Mac (P27282 1330-1489 limits assumed): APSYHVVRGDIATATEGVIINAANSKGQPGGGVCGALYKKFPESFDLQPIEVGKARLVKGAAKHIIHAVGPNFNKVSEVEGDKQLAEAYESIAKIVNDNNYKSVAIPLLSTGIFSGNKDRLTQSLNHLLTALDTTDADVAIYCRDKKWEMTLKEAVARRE
# T3 sequence (K9N7C7 1110-1276 limits assumed): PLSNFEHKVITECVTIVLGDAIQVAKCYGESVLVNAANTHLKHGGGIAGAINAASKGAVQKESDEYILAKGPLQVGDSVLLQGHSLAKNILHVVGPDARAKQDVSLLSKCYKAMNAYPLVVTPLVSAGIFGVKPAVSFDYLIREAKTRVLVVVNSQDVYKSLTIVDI
# T2 sequence (Q8JUX6 1334-1493 limits assumed): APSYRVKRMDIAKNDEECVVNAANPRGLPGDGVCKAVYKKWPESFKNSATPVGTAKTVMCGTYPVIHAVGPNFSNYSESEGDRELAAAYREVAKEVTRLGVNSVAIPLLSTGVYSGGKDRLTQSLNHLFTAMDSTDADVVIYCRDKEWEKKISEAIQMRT
Structure (SMILES),Kd (SARS-CoV-2 Mac1 [1]) [nM],kon (SARS-CoV-2 Mac1 [1]) [M⁻¹ s⁻¹],koff (SARS-CoV-2 Mac1 [1]) [s⁻¹],IC50 (CHIKV Mac [2]) [nM],kon (VEEV Mac) [M⁻¹ s⁻¹],koff (VEEV Mac) [s⁻¹],IC50 (SARS-CoV-2 Mac1 [3]) [nM],IC50 (MERS-CoV Mac1 [4]) [nM],kon (MERS-CoV Mac1 [5]) [M⁻¹ s⁻¹],Kd (MERS-CoV Mac1 [5]),koff (MERS-CoV Mac1 [5]) [s⁻¹],kon (CHIKV Mac [6]) [M⁻¹ s⁻¹],Kd (CHIKV Mac [6]),koff (CHIKV Mac [6]) [s⁻¹],fold more potent than biotin-ADPr based on Kd (SARS-CoV-2 Mac1 [1]) [fold],further results
Nc1ncnc2c1ncn2[C@@H]1O[C@H](COP(=O)(O)OP(=O)(O)OC[C@H]2O[C@H](n3cc(COCCOCCOCCOCCNC(=O)CCCC[C@@H]4SC[C@@H]5NC(=O)N[C@@H]54)nn3)[C@H](O)[C@@H]2O)[C@@H](O)[C@H]1O [biotin-ADPr],19600,53000 ± 3000,1 ± 0.05,22200,140000 ± 8000,0.79 ± 0.04,3500,6800,320000 ± 10000,2100 ± 100 nM,0.7 ± 0.03,120000 ± 3000,5300 ± 200 nM,0.65 ± 0.02,–,–
N#C[C@@]1(c2ccc3c(N)ncnn23)O[C@H](COP(=O)(O)OP(=O)(O)OC[C@H]2O[C@H](n3cc(COCCOCCOCCOCCNC(=O)CCCC[C@@H]4SC[C@@H]5NC(=O)N[C@@H]54)nn3)[C@H](O)[C@@H]2O)[C@@H](O)[C@H]1O [biotin-NDPr],280 ± 10,310000 ± 5000,0.085 ± 0.001,950,580000 ± 6000,0.076 ± 0.0008,57,1200,1.3e+06 ± 50000,210 ± 10 nM,0.27 ± 0.01,180000 ± 4000,331 nM and 330 nM,0.06 ± 0.0009,~70,fold stronger than biotin-ADPr (CHIKV Mac [6]): ~15 fold
Nc1ncnc2c1ncn2[C@@H]1O[C@H](COP(=O)(O)OP(=O)(O)OC[C@H]2O[C@H](Oc3ccc(Cn4cc(COCCOCCOCCOCCNC(=O)CCCC[C@@H]5SC[C@@H]6NC(=O)N[C@@H]65)nn4)cc3)[C@H](O)[C@@H]2O)[C@@H](O)[C@H]1O [biotin-Ph-ADPr],420 ± 10,270000 ± 5000,0.11 ± 0.002,> 10000,520000 ± 6000,0.083 ± 0.0008,130,310,1.1e+06 ± 30000,100 ± 4 nM,0.11 ± 0.003,19000 ± 500,6200 ± 200 nM,0.12 ± 0.002,~50,fold decrease in Kd compared to biotin-ADPr (VEEV Mac): 30 fold; fold decrease in Kd compared to biotin-ADPr (MERS-CoV Mac1 [5]): 20 fold
N#C[C@@]1(c2ccc3c(N)ncnn23)O[C@H](COP(=O)(O)OP(=O)(O)OC[C@H]2O[C@H](Oc3ccc(Cn4cc(COCCOCCOCCOCCNC(=O)CCCC[C@@H]5SC[C@@H]6NC(=O)N[C@@H]65)nn4)cc3)[C@H](O)[C@@H]2O)[C@@H](O)[C@H]1O [biotin-Ph-NDPr],24,300000 ± 3000,0.0071,860,820000 ± 7000,0.014 ± 6e-05,11,100,1.8e+06 ± 10000,17.2 nM and 17 nM,0.031 ± 0.0002,190000 ± 6000,570 ± 20 nM,0.11 ± 0.003,~1000,kdis fold smaller than that of biotin-ADPr (SARS-CoV-2 Mac1 [1]): more than 100 fold; fold decrease in Kd compared to biotin-ADPr (VEEV Mac): 400 fold; fold decrease in Kd compared to biotin-ADPr (MERS-CoV Mac1 [5]): ~100 fold
O=C(O)[C@H](Cc1c[nH]c2ccccc12)Nc1ncnc2[nH]ccc12 [compound 15c],–,–,–,–,–,–,–,–,–,–,–,–,–,–,–,IC50 (SARS-CoV-2 Mac1 [7]): 6100 nM
COC(=O)c1c(NC(=O)[C@@H]2CCC[C@@H](C(=O)O)C2)sc2c1CCCCCC2 [compound 27],–,–,–,–,–,–,–,–,–,–,–,–,–,–,–,IC50 (SARS-CoV-2 Mac1 [8]): 2100 nM
Nc1ncnc2c1ncn2C1OC(COP(=O)(O)OP(=O)(O)OCC2OC(Oc3ccc([N+](=O)[O-])cc3)C(O)C2O)C(O)C1O (stereo not drawn) [pNP-ADPr],–,–,–,–,–,–,–,–,–,–,–,–,–,–,–,IC50 (SARS-CoV-2 Mac1 [9]): 370 nM; fold more potent than ADPr (SARS-CoV-2 Mac1 [9]): > 20 fold
